PMC6262455 (Cells, 2018)
Read-outs that look alike come from different tables or passages of the source.

Experiments:
Format in all cases: cell-based
[1] = tested on: human breast adenocarcinoma (MCF-7); assay: cells; conditions: for IC50: read-out: IC50 MCF-7; for SI MCF-7: SI = IC50 BALB/3T3 / IC50 MCF-7
Excerpt: (§1) The BALB/3T3 cell line was purchased from the American Type Culture Collection (ATCC, Manassas, VA, USA), A549 and MCF-7 cell lines—from European Collection of Authenticated Cell Cultures (Salisbury, UK). The LoVo cell line was purchased from the American Type Culture Collection (ATCC, Manassas, VA, USA), and LoVo/DX by courtesy of Prof. E. Borowski (Technical University of Gdańsk, Gdańsk, Poland). All the cell lines are maintained in the Institute of Immunology and Experimental Therapy (IIET), Wroclaw, Poland. The human lung adenocarcinoma cell line was cultured in a mixture of OptiMEM and RPMI 1640 (1:1) medium (IIET, Wroclaw, Poland), supplemented with 5% foetal bovine serum (GE Healthcare, Logan UT, USA) and 2 mM L-glutamine (Sigma-Aldrich, Merck KGaA, Saint Louis, MO, USA). Human breast adenocarcinoma cell line was cultured in mixture of Eagle’s medium (IIET, Wroclaw, Poland), supplemented with 10% fetal bovine serum, 2 mM L-glutamine, 8 μg/mL insulin, and 1% amino-acids (Sigma-Aldrich, Merck KGaA, Saint Louis, MO, USA). […] Murine embryonic fibroblast cells were cultured in Dulbecco medium (Life Technologies Limited, Paisley, UK), supplemented with 10% foetal bovine serum (GE Healthcare, Logan, UT, USA) and 2 mM glutamine (Sigma-Aldrich, Merck KGaA, Saint Louis, MO, USA). All culture media contained antibiotics: 100 U/mL penicillin and 100 μg/mL streptomycin (Polfa–Tarchomin, Warsaw, Poland). All cell lines were cultured during the entire experiment in a humid atmosphere at 37 °C and 5% CO2. […] The procedure was repeated every year or in the case of less frequently used lines: after thawing.
(§2) Twenty-four h before adding the tested compounds, all cell lines were seeded in 96-well plates (Sarstedt, Nümbrecht, Germany) in appropriate media with 10^4 cells per well. All cell lines were exposed to each tested agent at four different concentrations in the range 100–0.01 μg/mL for 72 h. […] Additionally, all cell lines were exposed to DMSO (solvent used for tested compounds) (POCh, Gliwice, Poland) at concentrations corresponding to these present in tested agents’ dilutions. After 72 h sulforhodamine B assay (SRB) was performed.
(§3) After 72 h of incubation with the tested compounds, cells were fixed in situ by gently adding 50 μL per well of cold 50% trichloroacetic acid TCA (POCh, Gliwice, Poland) and were incubated at 4 °C for one hour. Following, wells were washed four times with water and air dried. Next, 50 μL of 0.1% solution of sulforhodamine B (Sigma-Aldrich, Merck KGaA, Saint Louis, MO, USA) in 1% acetic acid (POCh, Gliwice, Poland) were added to each well and plates were incubated at room temperature for 0.5 h. After incubation time, unbound dye was removed by washing plates four times with 1% acetic acid whereas stain bound to cells was solubilized with 10 mM Tris base (Sigma-Aldrich, Merck KGaA, Saint Louis, MO, USA). Absorbance of each solution was read at Synergy H4 Hybrid Multi-Mode Microplate Reader (BioTek Instruments, Inc., Winooski, VT, USA) at the 540 nm wavelength.
(§4) IC50 values were calculated in Cheburator 0.4, Dmitry Nevozhay software (version 1.2.0 software by Dmitry Nevozhay, 2004–2014, http://www.cheburator.nevozhay.com, freely available) for each experiment. Compounds at each concentration were tested in triplicates in single experiment and each experiment was repeated at least three times independently. The Resistance Index (RI) was defined as the ratio of IC50 for a given compound calculated for resistant cell line to that measured for its parental drug sensitive cell line (Table 1).

[2] = tested on: human colon adenocarcinoma cell line (LoVo); assay: cells; conditions: for IC50: LoVo, 72 h, read-out: IC50 LoVo; for SI LoVo: SI = IC50 BALB/3T3 / IC50 LoVo
Excerpt: as §1, §2, §3, §4

[3] = tested on: human lung adenocarcinoma (A549); assay: cells; conditions: for IC50: A549, 72 h, read-out: IC50 A549; for SI A549: SI = IC50 BALB/3T3 / IC50 A549
Excerpt: as §1, §2, §3, §4

[4] = tested on: doxorubicin-resistant human colon adenocarcinoma subline (LoVo/DX); assay: cells; conditions: for IC50: LoVo/DX, 72 h, read-out: IC50 LoVo/DX; for SI LoVo/DX: SI = IC50 BALB/3T3 / IC50 LoVo/DX; for RI (resistance index): RI = IC50 LoVo/DX / IC50 LoVo
Excerpt: as §1, §2, §3, §4

[5] = tested on: normal murine embryonic fibroblast cell line (BALB/3T3); assay: Antiproliferative SRB assay, 72 h, normal cells BALB/3T3; conditions: BALB/3T3, 72 h, mean ± SD
Excerpt: as §1, §2, §3, §4

Structure (SMILES) | IC50 ([1]; Homo sapiens, MCF7, 72 h) [nM] | SI MCF-7 [1] | IC50 ([2]; Homo sapiens) [nM] | SI LoVo [2] | IC50 ([3]; Homo sapiens) [nM] | SI A549 [3] | IC50 ([4]; Homo sapiens) [nM] | SI LoVo/DX [4] | IC50 ([5]; Mus musculus) [nM] | RI (resistance index) [4] | IC50 ([1]; MCF-7, 72 h, SRB, mean ± SD) [nM] | IC50 ([2]; SRB, mean ± SD) [nM] | IC50 ([3]; SRB, mean ± SD) [nM] | IC50 ([4]; SRB, mean ± SD) [nM] | IC50 [5] [nM] | IC50 ([3]; Homo sapiens, SRB, mean ± SD) [nM] | IC50 ([4]; Homo sapiens, SRB, mean ± SD) [nM]
CCCCOC(=O)N[C@H]1CCc2c(Br)c(OC)c(OC)c(OC)c2-c2ccc(SC)c(=O)cc21 [Compound 11] | 125 ± 14 | 1.17 | 62 ± 13 | 2.35 | 95 ± 5 | 1.54 | 91 ± 9 | 1.60 | 146 ± 14 |  |  |  |  |  |  |  | 
COc1c(Br)c2c(c(OC)c1OC)-c1ccc(SC)c(=O)cc1[C@@H](NC(=O)OCCOCCO)CC2 [Compound 12] | 125 ± 15 | 1.08 | 281 ± 185 | 0.48 | 93 ± 14 |  | 4240 ± 1330 | 0.03 | 135 ± 15 | 15.09 |  |  |  |  |  |  | 
COc1c(Br)c2c(c(OC)c1OC)-c1ccc(SC)c(=O)cc1[C@@H](NC(C)=O)CC2 [Compound 3, 4-bromothiocolchicine] | 15 ± 2 | 6.87 | 14 ± 4 | 7.36 | 10 ± 0.1 | 10.3 | 135 ± 12 | 0.76 | 103 ± 89 | 9.64 |  |  |  |  |  |  | 
COc1c(Br)c2c(c(OC)c1OC)-c1ccc(SC)c(=O)cc1[C@@H](NC(=O)OCCO)CC2 [Compound 5] | 57 ± 11 | 1.82 | 74 ± 19 | 1.41 | 74 ± 9 | 1.41 | 1010 ± 20 | 0.10 | 104 ± 43 | 13.65 |  |  |  |  |  |  | 
COc1c(Br)c2c(c(OC)c1OC)-c1ccc(SC)c(=O)cc1[C@@H](NC(=O)OCC(F)(F)F)CC2 [Compound 8] | 55 ± 26 | 2.51 | 18 ± 10 |  | 30 ± 21 |  | 74 ± 7 | 1.86 | 138 ± 10 | 4.11 |  |  |  |  |  |  | 
CCCOC(=O)N[C@H]1CCc2c(Br)c(OC)c(OC)c(OC)c2-c2ccc(SC)c(=O)cc21 [Compound 9] | 27 ± 7 | 4.30 | 11 ± 0.1 |  | 12 ± 4 |  | 72 ± 11 | 1.61 | 116 ± 9 | 6.55 |  |  |  |  |  |  | 
N.N.[Cl][Pt][Cl] [Cisplatin, reference compound] |  | 0.36 |  | 0.89 |  | 0.61 |  | 0.68 |  | 1.3 | 10700 ± 753 | 4370 ± 730 | 6370 ± 1410 | 5700 ± 630 | 3900 ± 1500 |  | 
COC(=O)N[C@H]1CCc2c(Br)c(OC)c(OC)c(OC)c2-c2ccc(SC)c(=O)cc21 [Compound 6] |  |  | 7 ± 2 |  | 10 ± 0.1 |  | 50 ± 10 |  | 66 ± 31 |  |  |  |  |  |  |  | 
CCOC(=O)N[C@H]1CCc2c(Br)c(OC)c(OC)c(OC)c2-c2ccc(SC)c(=O)cc21 [Compound 7] | 18 ± 2 | 5.67 | 11 ± 4 |  | 12 ± 4 |  | 71 ± 10 | 1.44 | 102 ± 63 | 6.45 |  |  |  |  |  |  | 
COc1cccc2c1C(=O)c1c(O)c3c(c(O)c1C2=O)C[C@@](O)(C(=O)CO)C[C@@H]3O[C@H]1C[C@H](N)[C@H](O)[C@H](C)O1 [Doxorubicin, reference compound] |  |  |  |  |  |  |  |  | 166 ± 74 |  |  |  |  |  |  | 258 ± 44 | 4750 ± 990
COc1c(Br)c2c(c(OC)c1OC)-c1ccc(OC)c(=O)cc1[C@@H](NC(C)=O)CC2 [Compound 2, 4-bromocolchicine] | 27 ± 8 | 5.26 | 84 ± 21 | 1.69 | 105 ± 8 | 1.35 | 1550 ± 170 | 0.09 | 142 ± 73 | 18.45 |  |  |  |  |  |  | 
COc1c(Br)c2c(c(OC)c1OC)-c1ccc(SC)c(=O)cc1[C@@H](NC(=O)OC(C)C)CC2 [Compound 10] | 132 ± 17 | 1.31 | 54 ± 17 | 3.20 | 89 ± 20 | 1.94 | 89 ± 26 | 1.94 | 173 ± 108 |  |  |  |  |  |  |  | 
COc1c(Br)c2c(c(OC)c1OC)-c1ccc(SC)c(=O)cc1[C@@H](N)CC2 [Compound 4, 4-bromo-N-deacetylthiocolchicine] | 178 ± 20 | 7.08 | 125 ± 44 | 10.08 | 115 ± 7 |  | 700 ± 88 | 1.80 | 1260 ± 796 | 5.60 |  |  |  |  |  |  | 
